Test results from ChEMBL document CHEMBL5346903, “Discovery of novel and bioavailable histone deacetylases and cyclin-dependent kinases dual inhibitor to impair the stemness of leukemia cells” (Eur J Med Chem, 2023).
pIC50: −log10 of the molar value.

Key:
Histone deacetylase 8 = Histone deacetylase 8 (Homo sapiens, UniProt Q9BY41); test: Inhibition of recombinant human HDAC8 using HDAC substrate incubated for 30 mins by fluorescence based assay
[1] = Cytotoxicity against human Kasumi 1 cells assessed as CD34positive CD38negative leukemic stem cell-like cells sub-population at 1 uM incubated for 24 hrs by APC/FITC satining based flow cytometry (reference value: 96.8 %); format: functional
[2] = molecular target: Cyclin-dependent kinase 4/cyclin D1 (Homo sapiens) (UniProt P11802+P24385); test: Inhibition of CDK4/cyclinD1 (unknown origin) at 100 nM preincubated for 20 mins followed by [gamma-33P]ATP addition measured after 120 mins in presence of ATP by Hot-SpotSM kinase assay relative to control; format: protein-complex assay; conditions: time 140.0 min
[3] = molecular target: T1, Cyclin-dependent kinase 5/CDK5 activator 1 (Homo sapiens) (UniProt Q00535+Q15078); test: Inhibition of CDK5/p25NCK (unknown origin) at 100 nM preincubated for 20 mins followed by [gamma-33P]ATP addition measured after 120 mins in presence of ATP by Hot-SpotSM kinase assay relative to control; format: protein-complex assay; conditions: time 140.0 min
HL-60 [4] = test: Induction of apoptosis in human HL-60 cells assessed as late apoptotic cells at 1 uM incubated for 48 hrs by annexin V-FITC/PI satining based flow cytometry (reference value: 1.33 %); format: functional
[5] = molecular target: T1, Cyclin-dependent kinase 5/CDK5 activator 1 (Homo sapiens); test: Inhibition of CDK5/p35NCK (unknown origin) at 100 nM preincubated for 20 mins followed by [gamma-33P]ATP addition measured after 120 mins in presence of ATP by Hot-SpotSM kinase assay relative to control; format: protein-complex assay; conditions: time 140.0 min
U-937 [6] = test: Induction of apoptosis in human U-937 cells assessed as necrotic cells at 2 uM incubated for 48 hrs by annexin V-FITC/PI satining based flow cytometry (reference value: 1.96 %); format: functional
[7] = molecular target: Cyclin-C/Cyclin-dependent kinase 19 (Homo sapiens) (UniProt Q9BWU1+P24863); test: Inhibition of CDK19/cyclinC (unknown origin) at 100 nM preincubated for 20 mins followed by [gamma-33P]ATP addition measured after 120 mins in presence of ATP by Hot-SpotSM kinase assay relative to control; format: protein-complex assay; conditions: time 140.0 min
U-937 [8] = test: Induction of apoptosis in human U-937 cells assessed as late apoptotic cells at 2 uM incubated for 48 hrs by annexin V-FITC/PI satining based flow cytometry (reference value: 7.10 %); format: functional
[9] = Clearance in Sprague-Dawley rat at 5 mg/kg, iv measured upto 6 hrs by LC/MS-MS analysis; format: ADME, organism-based; conditions: in vivo
U-937 [10] = test: Induction of apoptosis in human U-937 cells assessed as early apoptotic cells at 1 uM incubated for 48 hrs by annexin V-FITC/PI satining based flow cytometry (reference value: 0.945 %); format: functional
HL-60 [11] = test: Induction of differentiation in human HL-60 cells assessed as increase in CD11b positive cells at 1 uM incubated for 24 hrs by FITC staining based flow cytometry (reference value: 1.45 %); format: functional
[12] = molecular target: CDK2/Cyclin A2 (Homo sapiens) (UniProt P24941+P20248); conditions: dose 100.0 nM, time 140.0 min
HL-60 [13] = test: Downregulation of Pol-II S2 level in human HL-60 cells incubated for 6 hrs by Western blot analysis; format: functional, cell-based; conditions: dose <= 1000.0 nM
U-937 [14] = test: Induction of apoptosis in human U-937 cells assessed as viable cells at 1 uM incubated for 48 hrs by annexin V-FITC/PI satining based flow cytometry (reference value: 90.0 %); format: functional; conditions: read-out: Activity
U-937 [15] = test: Induction of apoptosis in human U-937 cells assessed as early apoptotic cells at 0.5 uM incubated for 48 hrs by annexin V-FITC/PI satining based flow cytometry (reference value: 0.945 %); format: functional
HL-60 [16] = test: Induction of apoptosis in human HL-60 cells assessed as late apoptotic cells at 2.5 uM incubated for 48 hrs by annexin V-FITC/PI satining based flow cytometry (reference value: 2.83 %); format: functional
HL-60 [17] = test: Induction of apoptosis in human HL-60 cells assessed as necrotic cells at 5 uM incubated for 48 hrs by annexin V-FITC/PI satining based flow cytometry (reference value: 0.04 %); format: functional
HL-60 [18] = test: Induction of apoptosis in human HL-60 cells assessed as necrotic cells at 2.5 uM incubated for 48 hrs by annexin V-FITC/PI satining based flow cytometry (reference value: 0.04 %); format: functional
HL-60 [19] = test: Induction of apoptosis in human HL-60 cells assessed as viable cells at 2.5 uM incubated for 48 hrs by annexin V-FITC/PI satining based flow cytometry (reference value: 94.7 %); format: functional; conditions: read-out: Activity
HL-60 [20] = test: Induction of apoptosis in human HL-60 cells assessed as viable cells at 0.6 uM incubated for 48 hrs by annexin V-FITC/PI satining based flow cytometry (reference value: 94.7 %); format: functional; conditions: read-out: Activity
HL-60 [21] = test: Induction of apoptosis in human HL-60 cells assessed as early apoptotic cells at 5 uM incubated for 48 hrs by annexin V-FITC/PI satining based flow cytometry (reference value: 2.4 %); format: functional
U-937 [22] = test: Induction of apoptosis in human U-937 cells assessed as viable cells at 0.6 uM incubated for 48 hrs by annexin V-FITC/PI satining based flow cytometry (reference value: 93.7 %); format: functional; conditions: read-out: Activity
U-937 [23] = test: Induction of apoptosis in human U-937 cells assessed as viable cells at 2.5 uM incubated for 48 hrs by annexin V-FITC/PI satining based flow cytometry (reference value: 93.7 %); format: functional; conditions: read-out: Activity
U-937 [24] = test: Induction of apoptosis in human U-937 cells assessed as necrotic cells at 5 uM incubated for 48 hrs by annexin V-FITC/PI satining based flow cytometry (reference value: 0.102 %); format: functional
U-937 [25] = test: Induction of apoptosis in human U-937 cells assessed as late apoptotic cells at 0.6 uM incubated for 48 hrs by annexin V-FITC/PI satining based flow cytometry (reference value: 4.23 %); format: functional
[26] = Cytotoxicity against human Kasumi 1 cells assessed as CD34positive CD38negative leukemic stem cell-like cells sub-population at 2 uM incubated for 24 hrs by APC/FITC satining based flow cytometry (reference value: 95.8 %); format: functional
U-937 [27] = test: Induction of apoptosis in human U-937 cells assessed as necrotic cells at 2.5 uM incubated for 48 hrs by annexin V-FITC/PI satining based flow cytometry (reference value: 0.102 %); format: functional
HL-60 [28] = test: Induction of apoptosis in human HL-60 cells assessed as late apoptotic cells at 5 uM incubated for 48 hrs by annexin V-FITC/PI satining based flow cytometry (reference value: 2.83 %); format: functional
U-937 [29] = test: Induction of apoptosis in human U-937 cells assessed as early apoptotic cells at 1.2 uM incubated for 48 hrs by annexin V-FITC/PI satining based flow cytometry (reference value: 1.93 %); format: functional
U-937 [30] = test: Induction of differentiation in human U-937 cells assessed as increase in CD11b positive cells at 5 uM incubated for 48 hrs by FITC staining based flow cytometry (reference value: […] %); format: functional
[31] = Cytotoxicity against human Kasumi 1 cells assessed as CD34positive CD38negative leukemic stem cell-like cells sub-population at 1 uM incubated for 24 hrs by APC/FITC satining based flow cytometry (reference value: 95.8 %); format: functional

T1 sequence (Q00535 whole entry): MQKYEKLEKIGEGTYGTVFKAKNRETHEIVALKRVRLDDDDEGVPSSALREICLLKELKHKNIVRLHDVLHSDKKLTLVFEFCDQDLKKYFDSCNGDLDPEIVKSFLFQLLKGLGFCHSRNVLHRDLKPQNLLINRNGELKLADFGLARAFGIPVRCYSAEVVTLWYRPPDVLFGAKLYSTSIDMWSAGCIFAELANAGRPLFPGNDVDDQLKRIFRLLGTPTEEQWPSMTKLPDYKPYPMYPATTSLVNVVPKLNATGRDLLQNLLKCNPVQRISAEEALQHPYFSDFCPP
T1 sequence (Q15078 99-307 partner limits assumed): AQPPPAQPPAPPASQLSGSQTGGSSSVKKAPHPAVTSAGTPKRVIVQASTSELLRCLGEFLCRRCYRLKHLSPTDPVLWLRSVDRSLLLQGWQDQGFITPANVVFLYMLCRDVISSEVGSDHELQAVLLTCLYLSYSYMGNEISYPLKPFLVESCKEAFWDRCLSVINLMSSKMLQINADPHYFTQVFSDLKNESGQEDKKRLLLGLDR
Histone deacetylase 8, sequence (Q9BY41 whole entry): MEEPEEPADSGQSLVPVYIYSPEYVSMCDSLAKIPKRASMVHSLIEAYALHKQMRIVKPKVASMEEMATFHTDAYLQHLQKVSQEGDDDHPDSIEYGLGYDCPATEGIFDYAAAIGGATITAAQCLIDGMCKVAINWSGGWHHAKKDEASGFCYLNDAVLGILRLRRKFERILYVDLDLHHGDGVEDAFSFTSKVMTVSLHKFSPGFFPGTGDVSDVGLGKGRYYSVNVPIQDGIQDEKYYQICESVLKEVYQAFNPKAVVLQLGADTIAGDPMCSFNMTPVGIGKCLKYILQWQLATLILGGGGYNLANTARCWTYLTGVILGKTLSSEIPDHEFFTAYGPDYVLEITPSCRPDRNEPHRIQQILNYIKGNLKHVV

Nc1ccccc1NC(=O)c1ccc(NC(=O)c2n[nH]cc2NC(=O)c2c(Cl)cccc2Cl)cc1
pIC50 (Histone deacetylase 8): 6.00
Activity [1]: 35.3%
inhibition [2]: 53.7%
inhibition [3]: 95.2%
Activity (HL-60 [4]): 39%
inhibition [5]: 90.7%
Activity (U-937 [6]): 3.3%
inhibition [7]: 23.1%
Activity (U-937 [8]): 88.7%
clearance [9]: 88.5 mL/min/kg
Activity (U-937 [10]): 1.92%
Activity (HL-60 [11]): 37.6%
inhibition [12]: 69.1%
Activity (HL-60 [13]): Dose-Dependent Effect
viability at 1 µM (U-937 [14]): 48.9%
Activity (U-937 [15]): 1.99%

Nc1cc(F)ccc1NC(=O)c1ccc(CNC(=O)/C=C/c2cccnc2)cc1 [TUCIDINOSTAT]
Activity (HL-60 [16]): 37.9%
Activity (HL-60 [17]): 0.353%
Activity (HL-60 [18]): 0.05%
viability at 2.5 µM (HL-60 [19]): 56.1%
viability at 0.6 µM (HL-60 [20]): 95.1%
Activity (HL-60 [21]): 8.11%
viability at 0.6 µM (U-937 [22]): 93.5%
viability at 2.5 µM (U-937 [23]): 87.5%
Activity (U-937 [24]): 0.117%
Activity (U-937 [25]): 4.81%
Activity [26]: 77.8%
Activity (U-937 [27]): 0.084%
Activity (HL-60 [28]): 73.4%
Activity (U-937 [29]): 2.74%
Activity (U-937 [30]): 5.7%
Activity [31]: 88.5%
